In PubChem BioAssay (NCI):
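Exposure lasted 48 hours, with cells grown in 96-well plates and compounds tested at five concentrations. The concentration for 50% growth inhibition is given as GI50. At the TGI there is no net growth.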

What was measured:
Test in all cases: NCI tumour cell line growth inhibition, 48 h
TK-10 renal = tested on: TK-10 renal
IGROV1 ovarian = tested on: IGROV1 ovarian
CCRF-CEM leukemia = tested on: CCRF-CEM leukemia
K-562 leukemia = tested on: K-562 leukemia
SN12C renal = tested on: SN12C renal
HL-60(TB) leukemia = tested on: HL-60(TB) leukemia
RPMI-8226 leukemia = tested on: RPMI-8226 leukemia
HCT-15 colon = tested on: HCT-15 colon
SF-539 CNS = tested on: SF-539 CNS
UACC-62 melanoma = tested on: UACC-62 melanoma

| Structure (SMILES) | TGI (TK-10 renal) [µM] | TGI (IGROV1 ovarian) [µM] | TGI (CCRF-CEM leukemia) [µM] | TGI (K-562 leukemia) [µM] | TGI (SN12C renal) [µM] | TGI (HL-60(TB) leukemia) [µM] | TGI (RPMI-8226 leukemia) [µM] | TGI (HCT-15 colon) [µM] | TGI (SF-539 CNS) [µM] | TGI (UACC-62 melanoma) [µM] | GI50 (IGROV1 ovarian) [µM] | GI50 (CCRF-CEM leukemia) [µM] | GI50 (K-562 leukemia) [µM] | GI50 (SN12C renal) [µM] | GI50 (HL-60(TB) leukemia) [µM] | GI50 (RPMI-8226 leukemia) [µM] | GI50 (HCT-15 colon) [µM] | GI50 (SF-539 CNS) [µM] | GI50 (UACC-62 melanoma) [µM] |
| --- | --- | --- | --- | --- | --- | --- | --- | --- | --- | --- | --- | --- | --- | --- | --- | --- | --- | --- | --- |
| c1ccc(-c2nnc(SCc3c[nH]c4ccccc34)n2-c2ccccc2)cc1 | 64.1 | > 100 | > 100 | > 100 | > 100 | > 100 | > 100 | > 100 | 70.3 | 66.7 |  |  |  |  |  |  |  |  |  |
| O=C(Nc1c(C(=O)NC2CCCCC2)[nH]c(=O)[nH]c1=O)c1ccc(Cl)cc1 | > 100 | > 100 | > 100 | > 100 | > 100 | > 100 | > 100 | > 100 | > 100 | > 100 |  |  |  |  |  |  |  |  |  |
| COC1=CC(=O)c2c(cc(COP(=O)(OCC3OC(n4cc(F)c(=O)[nH]c4=O)CC3O)N(C)CCCCCl)n2C)C1=O (configuration not stated) | > 100 | 23.7 | > 100 | > 95.9 | 1.84 | 16 | > 19.8 | > 86.4 |  | 1.79 |  |  |  |  |  |  |  |  |  |
| C=C1C(=O)O[C@@H]2[C@H]1CCC(C)=C1C=CC(=O)[C@]12C | 38 | 46.7 | 26 | 90.2 | 29.3 | 14 | 49.7 |  | 30 | 22.6 |  |  |  |  |  |  |  |  |  |
| N=C(N)SCc1cc(Cl)cc(Cl)c1O | 35.4 | 38.2 | 35.6 | 41.5 | 36.6 | 21.1 | 47.5 | 46.8 | 22.1 | 34 |  |  |  |  |  |  |  |  |  |
| Cc1ccc(C2N=C(N)NC3=C2CCOc2c3ccc3ccccc23)cc1 (configuration not stated) | > 80.3 | > 100 | 3.71 | > 44.1 | > 72 | 19 | > 63.2 | > 60.1 | 44.7 | 57.5 | 44.6 |  |  |  |  |  |  |  |  |
| O=C(O)C1CCC(=O)N1S(=O)(=O)c1ccccc1 (configuration not stated) |  | > 100 | > 100 | > 100 | > 100 | > 100 | > 100 | > 100 | > 100 | > 100 |  |  |  |  |  |  |  |  |  |
| COc1ccc(-c2nn(-c3cccc(NC(=O)Nc4ccccc4)c3)cc2-c2ccncc2)cc1Cl |  | 8.02 | 8.31 | > 100 | 7.39 | 6.36 | 5.83 | 4.98 | 3.5 | > 100 | 2.73 | 2.65 | 3.49 | 2.39 | 2.52 | 2.14 | 1.96 | 1.8 | 3.05 |
| CCOc1ccc(/C(C=O)=C(\Cl)c2ccc(OC)c(OC)c2)cc1 | > 100 | > 100 | > 100 | > 100 | > 100 | > 100 | > 100 | > 100 | > 100 | > 100 |  |  |  |  |  |  |  |  |  |
| O=c1cc(N2CCCC2)[nH]c(=O)n1-c1ccc(F)cc1 | > 100 | > 100 | > 100 | > 100 | > 100 | > 100 | > 100 | > 100 | > 100 | > 100 |  |  |  |  |  |  |  |  |  |
| Clc1ccc(CNc2nc(Cl)c3[nH]cnc3n2)cc1Cl | 84.7 | > 100 | > 100 | > 100 | > 100 |  |  | > 100 | 45.2 | > 100 |  |  |  |  |  |  |  |  |  |
| Cc1cc(S(=O)(=O)NC2=NC(c3ccccc3)c3cc(Cl)ccc3N2)c(S)cc1Cl (configuration not stated) | > 100 | > 100 | > 100 | > 100 | > 100 | > 100 | > 100 | > 100 | > 100 | > 100 |  |  |  |  |  |  |  |  |  |
| Cc1cc2c(C(C)C)c(O)c(O)c(C=NCCO)c2c(O)c1-c1c(C)cc2c(C(C)C)c(O)c(O)c(C=NCCO)c2c1O | 18.4 | 6.38 | 5.78 | 3.31 | 9.63 | 4.97 | 4.9 | 2.9 | 5.37 | 6.15 |  |  |  |  |  |  |  |  |  |
| CO/C(=C/C(=O)C(Cl)(Cl)Cl)CC/C(=C\C(=O)C(Cl)(Cl)Cl)OC | 73.2 | 35.8 | > 100 | > 100 | 54.5 | 80.5 | 70.9 | 73.1 | 63.2 | 46.8 |  |  |  |  |  |  |  |  |  |
| CN1C[C@H]2[C@@H](C1=O)[C@H](c1ccccc1)ON2C | > 100 | > 100 | > 100 | > 100 | > 100 |  | > 100 | > 100 |  |  |  |  |  |  |  |  |  |  |  |
| COC(=O)[C@@]1(Cc2ccc(O)cc2)C[C@@H]2Cc3ccccc3N2N1 | > 100 | > 100 |  |  | > 100 |  | > 100 | > 100 | > 100 | > 100 |  |  |  |  |  |  |  |  |  |

| Structure (SMILES) | TGI (TK-10 renal) [µM] | TGI (IGROV1 ovarian) [µM] | TGI (CCRF-CEM leukemia) [µM] | TGI (K-562 leukemia) [µM] | TGI (SN12C renal) [µM] | TGI (HL-60(TB) leukemia) [µM] | TGI (RPMI-8226 leukemia) [µM] | TGI (HCT-15 colon) [µM] | TGI (SF-539 CNS) [µM] | TGI (UACC-62 melanoma) [µM] | GI50 (IGROV1 ovarian) [µM] | GI50 (CCRF-CEM leukemia) [µM] | GI50 (K-562 leukemia) [µM] | GI50 (SN12C renal) [µM] | GI50 (HL-60(TB) leukemia) [µM] | GI50 (RPMI-8226 leukemia) [µM] | GI50 (HCT-15 colon) [µM] | GI50 (SF-539 CNS) [µM] | GI50 (UACC-62 melanoma) [µM] |
| --- | --- | --- | --- | --- | --- | --- | --- | --- | --- | --- | --- | --- | --- | --- | --- | --- | --- | --- | --- |
| COc1c2c(cc3c1OCO3)C13C=CC(OC)CC1N(CC3)C2 (configuration not stated) | > 100 | > 100 | > 100 |  | > 100 | > 100 | > 100 | > 100 | > 100 | > 100 |  |  |  |  |  |  |  |  |  |
| CC(=O)OCC1=C(C(=O)O)C(c2ccc3c(c2)OCO3)c2cc3c(cc2O1)OCO3 (configuration not stated) | > 100 | > 100 | > 100 | > 100 | > 100 | > 100 | > 100 | > 100 | > 100 | > 100 |  |  |  |  |  |  |  |  |  |
| O=c1c2ccccc2nc2n1C(c1ccc([N+](=O)[O-])cc1)C2(c1ccccc1)c1ccccc1 (configuration not stated) | > 100 | > 100 | > 100 |  | > 100 | > 100 | > 100 | > 100 | > 100 | > 100 |  |  |  |  |  |  |  |  |  |
| CCC(=O)NC(Nc1cccc(F)c1)(C(F)(F)F)C(F)(F)F | > 100 | > 100 | > 100 | > 100 | > 100 | > 100 | > 100 | > 100 | > 100 | > 100 |  |  |  |  |  |  |  |  |  |
| NC1(C(=O)O)CCc2ccc(N(CCCl)CCCl)cc2C1 (configuration not stated) |  | > 100 | > 100 | > 100 | > 100 | > 100 | > 100 | > 100 | > 100 | > 100 |  |  |  |  |  |  |  |  |  |
| CCCC(N)C(=O)c1ccccc1 (configuration not stated) | > 100 | > 100 | > 100 | > 100 | > 100 | > 100 | > 100 | > 100 | > 100 | > 100 |  |  |  |  |  |  |  |  |  |
| O=C(Nc1ccc(Sc2ccc(N=Nc3c(O)c(S(=O)(=O)O)cc4cc(S(=O)(=O)O)ccc34)cc2)cc1)c1ccc(N=Nc2c(O)ccc3c(S(=O)(=O)O)cc(S(=O)(=O)O)cc23)cc1 | > 100 | > 100 | 77.4 | 87.6 | > 100 | 33.5 | 73.4 | > 100 | > 100 | 49.7 |  |  |  |  |  |  |  |  |  |
| Cc1cc(C)c2c(c1)C1=NCCN1C2(O)c1ccc(Cl)cc1 (configuration not stated) | 15.5 | 27.4 | 54.7 | 65 | 30.3 | 49.4 | 33.2 | 32.4 | 29 | 29.4 |  |  |  |  |  |  |  |  |  |
| COC(=O)/C=C(/C(=O)OC)c1cc2ccc3c([nH]c4ccccc43)c(C)c-2c1 | > 100 | 13.1 | 10.8 | 7.09 | 27 | 12.5 | 25.2 | 29 | 31.5 | 17.8 |  |  |  |  |  |  |  |  |  |
| COc1cc(C(=O)C2C(=O)c3ccccc3C2C2(O)c3ccccc3CC2C(O)c2cc(OC)c(OC)c(OC)c2)cc(OC)c1OC (configuration not stated) | > 100 | > 100 |  | > 100 | > 100 |  | 84.4 | > 100 | > 100 | > 100 |  |  |  |  |  |  |  |  |  |
| N#CCCN(CCC#N)c1ccc(C(N=Nc2ccccc2)=Nc2ccc(Cl)cc2)cc1 | > 100 | > 100 | > 100 | > 100 | > 100 |  | > 100 | > 100 | > 100 | > 100 |  |  |  |  |  |  |  |  |  |
| Fc1ccc(-c2nn3c(-c4cc(C(F)(F)F)cc(C(F)(F)F)c4)nnc3s2)cc1 |  | > 50 | > 50 | > 50 | > 50 |  | > 50 | > 50 | > 50 | > 50 | 1.66 | > 50 | > 50 | 2.51 |  | > 50 | > 50 | 3.07 | > 50 |
| N#CC(Nc1cccc(C(F)(F)F)c1)c1ccccc1C(F)(F)F (configuration not stated) | 27.9 | 38.1 | 59.7 | 42.4 | 17.9 | 7.57 |  | 17.8 | 33.1 | 31.4 |  |  |  |  |  |  |  |  |  |
| Cc1c(-c2ccccc2)c(C#N)c2nnn(C3CCCCC3)c(=O)n12 | > 100 | > 100 | > 100 | > 100 | > 100 | > 100 | > 100 | > 100 | > 100 | > 100 |  |  |  |  |  |  |  |  |  |
| CC(C)(C)OC(=O)NCCC(=O)NC1(c2cc3ccccc3s2)CCCCC1 | 55.4 | 36.5 | 27.5 | 28.9 | 34.3 | 35.1 | 20.5 | 30.6 | 29.2 | 49.1 |  |  |  |  |  |  |  |  |  |
| CCCCCCCNC(P(=O)(O)O)P(=O)(O)O | > 100 | > 100 | > 100 | > 100 | > 100 | > 100 | > 100 | > 100 | > 100 | > 100 |  |  |  |  |  |  |  |  |  |
